Measured values: US12304912B2, “Fused bicyclic RAF inhibitors and methods for use thereof” (Jazz Pharmaceuticals Ireland Limited, priority 2020, dated 2025)
Where two headings read alike, the source gives them in different places.

What was measured:
[1] = Microsomal stability assay, mouse liver microsomes (MLM); format: in vitro ADME; details: 0.5 mg/mL protein, 1 μM substrate
Summary of the method: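 Half-life and CLint come from the ln(% remaining)–time slope, with remaining compound quantified by LC-MS/MS after ice-cold solvent quench of timed samples. Incubations used 1 μM test compound and 0.5 mg·mL^−1 human or mouse liver microsomal protein at 37° C.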

[2] = tested on: RAF dimers in HCT-116 cells; test: HCT-116 AlphaLISA SureFire pERK1/2 cellular assay (dimer); format: cell-based; details: Homo sapiens, HCT-116, 1 hr
Summary of the method: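 HCT-116 (KRAS G13D) cells, 30,000/well, pretreated 1 h with 1 μM Encorafenib to induce RAF dimers, washed, then dosed 1 h at 37° C with compound (10-point, top 10 μM, 1/2 log steps) in growth medium. pERK1/2 (T202/Y204) measured by AlphaLISA SureFire; absolute IC50 versus DMSO control.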

[3] = Plasma protein binding assay, human plasma (hPPB); format: in vitro ADME; details: 5 μM
Summary of the method: (§1)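 Equilibrium dialysis of 5 μM compound in previously frozen human or mouse plasma against phosphate buffer, 4 h at 37 °C. Both chambers quantified by LC-MS/MS; % free = (1−((PC−PF)/PC))×100.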

[4] = tested on: BRAF monomers in A375 cells; test: A375 AlphaLISA SureFire pERK1/2 cellular assay (monomer); format: cell-based; details: Homo sapiens, A-375; A375 cells, 1 hr; read-out: pERK A375 (1 hr) pIC50 (converted)
Summary of the method: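 BRAF^V600E A375 melanoma cells seeded at 30,000/well in DMEM with 10% FBS, dosed without medium exchange in a 10-point series from 10 μM at 1/2-log steps, 1 h at 37 °C. Phospho-ERK1/2 (Thr202/Tyr204) measured in lysates by AlphaLISA SureFire; absolute IC50 relative to DMSO control.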

[5] = Plasma protein binding assay, mouse plasma (mPPB); format: in vitro ADME; details: 5 μM
Summary of the method: as §1

[6] = HCT116 cells, dimer, read-out: pERK HCT116 dimer (1 hr) plC50 (converted)
[7] = equilibrium dialysis 4 hours at 37° C.
[8] = HCT116 cells pre-dosed with 1 μM Encorafenib, read-out: pERK HCT116 dimer (1 hr) pIC50 (converted)
[9] = equilibrium dialysis 4 hours 37° C.

| SMILES | microsomal CLint at 1 μM ([1]; 37° C.) [µL/min/mg] | IC50 [2, 6] [nM] | hPPB (% free) [3, 7] [% free] | IC50 [4] [nM] | mPPB (% free) [5, 7] [% free] | microsomal CLint at 1 μM [1] [µL/min/mg] | IC50 [2, 8] [nM] | hPPB (% free) [3, 9] [% free] | mPPB (% free) [5, 9] [% free] | MLM (CLint) ([1]; 37° C.) [µL/min/mg] |
| --- | --- | --- | --- | --- | --- | --- | --- | --- | --- | --- |
| Cc1cc(-c2c[nH]c(C3COc4ccc(Oc5ccnc6c5CCC(=O)N6)cc4C3)n2)n(CC(F)(F)F)n1 (stereo not drawn) [Compound 126, 5-[3-[4-[5-methyl-2-(2,2,2-trifluoroethyl)pyrazol-3-yl]-1H-imidazol-2-yl]chroman-6-yl]oxy-3,4-dihydro-1H-1,8-naphthyridin-2-one] | 55.7 | 245 | 1.0 | 794 | 0.7 | – | – | – | – | – |
| O=C(CN1CC(O)C1)Nc1cc(Oc2ccc3c(c2)CC(c2nc(-c4ccccc4)c[nH]2)CO3)ccn1 (stereo not drawn) [Compound 153] | 92.9 | 126 | 0.39 | 501 | 0.6 | – | – | – | – | – |
| N#Cc1ccc2[nH]c(C3COc4ccc(Oc5ccnc6c5CCC(=O)N6)cc4C3)nc2c1 (stereo not drawn) [Compound 24] | – | – | – | 562 | – | 41.6 | 155 | 1.8 | 1.9 | – |
| Cc1cc(-c2c[nH]c(C3COc4ccc(Oc5ccnc6c5CCC(=O)N6)cc4C3)n2)n(C2CC2)n1 (stereo not drawn) [Compound 114, 5-[3-[4-(2-cyclopropyl-5-methyl-pyrazol-3-yl)-1H-imidazol-2-yl]chroman-6-yl]oxy-3,4-dihydro-1H-1,8-naphthyridin-2-one] | 12.6 | 363 | 1.2 | 2570 | 2.0 | – | – | – | – | – |
| O=C1CCc2c(Oc3ccc4c(c3)CN(C(=O)Nc3cccc(C(F)(F)F)c3)CC4)ccnc2N1 [Compound 50] | – | – | – | 269 | – | 79 | 64.6 | 1.2 | 1.6 | – |
| O=C1CCc2c(Oc3ccc4c(c3)CC(c3nc5cc(C(F)(F)F)ncc5[nH]3)CO4)ccnc2N1 (racemic) [Compound 32] | – | – | – | 251 | – | 8.3 | 398 | 1.3 | 3.2 | – |
| c1ccc(-c2c[nH]c(C3COc4ccc(Oc5ccnc(Nc6ccccn6)c5)cc4C3)n2)cc1 (stereo not drawn) [Compound 140, 4-[3-(4-phenyl-1H-imidazol-2-yl)chroman-6-yl]oxy-N-(2-pyridyl)pyridin-2-amine] | 81.1 | 2040 | <0.1 | 5890 | 0.2 | – | – | – | – | – |
| O=C(Nc1cc(Oc2ccc3c(c2)CC(c2nc(-c4ccccc4)c[nH]2)CO3)ccn1)C1CC1 (stereo not drawn) [Compound 45, N-[4-[3-(4-phenyl-1H-imidazol-2-yl)chroman-6-yl]oxy-2-pyridyl]cyclopropanecarboxamide] | – | – | – | 162 | – | 277 | 89.1 | 0.2 | 0.2 | – |
| O=C1CCc2c(Oc3ccc4c(c3)CC(c3nc(-c5ccnc(C(F)F)c5)c[nH]3)CO4)ccnc2N1 (stereo not drawn) [Compound 101, 5-[3-[4-[2-(difluoromethyl)-4-pyridyl]-1H-imidazol-2-yl]chroman-6-yl]oxy-3,4-dihydro-1H-1,8-naphthyridin-2-one] | 15.2 | 63.1 | 1.6 | 204 | 1.1 | – | – | – | – | – |
| CC1CC1C(=O)Nc1cc(Oc2ccc3c(c2)CC(c2nc(-c4ccccc4)c[nH]2)CO3)ccn1 (stereo not drawn) [Compound 157] | – | 174 | <0.1 | 525 | <0.1 | – | – | – | – | 277 |
| COc1cc(-c2c[nH]c(C3COc4ccc(Oc5ccnc6c5CCC(=O)N6)cc4C3)n2)ccn1 (stereo not drawn) [Compound 19, 5-[3-[4-(2-methoxy-4-pyridyl)-1H-imidazol-2-yl]chroman-6-yl]oxy-3,4-dihydro-1H-1,8-naphthyridin-2-one] | – | – | – | 1620 | – | 23 | 347 | 1.9 | 1.5 | – |
| CN(C)c1ccc2[nH]c(C3COc4ccc(Oc5ccnc6c5CCC(=O)N6)cc4C3)nc2c1 (stereo not drawn) [Compound 26] | – | – | – | 64.6 | – | 89.3 | 275 | 0.7 | 1 | – |
| Cc1cc(-c2c[nH]c(C3COc4ccc(Oc5ccnc6c5CCC(=O)N6)cc4C3)n2)n(C(C)C)n1 (stereo not drawn) [Compound 112, 5-[3-[4-(2-isopropyl-5-methyl-pyrazol-3-yl)-1H-imidazol-2-yl]chroman-6-yl]oxy-3,4-dihydro-1H-1,8-naphthyridin-2-one] | 55.5 | 257 | 1.4 | 1780 | 2.0 | – | – | – | – | – |
| O=C(Nc1cc(Oc2ccc3c(c2)CC(c2nc(-c4ccccc4)c[nH]2)CO3)ccn1)C1CC1 (racemic) [Compound 136] | – | 89.1 | 0.2 | 162 | 0.2 | – | – | – | – | 277 |
| CC(=O)Nc1cc(Oc2ccc3c(c2)CC(c2nc(-c4ccccc4)c[nH]2)CO3)ccn1 (stereo not drawn) [Compound 156, N-[4-[3-(4-phenyl-1H-imidazol-2-yl)chroman-6-yl]oxy-2-pyridyl]acetamide] | 152 | 52.5 | 0.5 | 178 | 0.4 | – | – | – | – | – |
| O=C1CCc2c(Oc3ccc4c(c3)CC(c3nc5ccncc5[nH]3)CO4)ccnc2N1 (stereo not drawn) [Compound 134, 5-[3-(3H-imidazo[4,5-c]pyridin-2-yl)chroman-6-yl]oxy-3,4-dihydro-1H-1,8-naphthyridin-2-one] | 72.4 | 32.4 | 6.1 | > 1000 | 9.5 | – | – | – | – | – |
| O=C(Cn1cncn1)Nc1cc(Oc2ccc3c(c2)CC(c2nc(-c4ccccc4)c[nH]2)CO3)ccn1 (stereo not drawn) [Compound 154] | 95.2 | 38 | 0.75 | 97.7 | 0.7 | – | – | – | – | – |
| O=C1CCc2c(Oc3ccc4c(c3)CN(c3nc5cc(C(F)(F)F)ccc5[nH]3)CC4)ccnc2N1 [Compound 160] | 4.5 | 347 | 0.3 | 871 | <0.1 | – | – | – | – | – |
| CN1CCN(CC(=O)Nc2cc(Oc3ccc4c(c3)CC(c3nc(-c5ccccc5)c[nH]3)CO4)ccn2)CC1 (stereo not drawn) [Compound 146, 2-(4-methylpiperazin-1-yl)-N-[4-[3-(4-phenyl-1H-imidazol-2-yl)chroman-6-yl]oxy-2-pyridyl]acetamide] | 89.7 | 170 | 1.5 | 372 | 0.7 | – | – | – | – | – |
| CCc1cc(-c2c[nH]c(C3COc4ccc(Oc5ccnc6c5CCC(=O)N6)cc4C3)n2)n(C)n1 (stereo not drawn) [Compound 111] | 26.9 | 107 | 1.91 | 537 | 1.73 | – | – | – | – | – |
| CN1CCC(C(=O)Nc2cc(Oc3ccc4c(c3)CC(c3nc(-c5ccccc5)c[nH]3)CO4)ccn2)CC1 (stereo not drawn) [Compound 147, 1-methyl-N-[4-[3-(4-phenyl-1H-imidazol-2-yl)chroman-6-yl]oxy-2-pyridyl]piperidine-4-carboxamide] | 102 | 437 | 0.5 | 631 | 0.8 | – | – | – | – | – |
| COc1ccsc1-c1c[nH]c(C2COc3ccc(Oc4ccnc5c4CCC(=O)N5)cc3C2)n1 (stereo not drawn) [Compound 123] | 126 | 58.9 | 0.23 | 28.2 | 0.25 | – | – | – | – | – |
| O=C1CCc2c(Oc3ccc4c(c3)CC(c3nc(-c5cccc(C(F)(F)F)c5)c[nH]3)CO4)ccnc2N1 (stereo not drawn) [Compound 12, 5-[3-[4-[3-(trifluoromethyl)phenyl]-1H-imidazol-2-yl]chroman-6-yl]oxy-3,4-dihydro-1H-1,8-naphthyridin-2-one] | – | – | – | 42.7 | – | 15.7 | 229 | <0.1 | <0.1 | – |
| Cn1nc(C(F)(F)F)cc1-c1c[nH]c(C2COc3ccc(Oc4ccnc5c4CCC(=O)N5)cc3C2)n1 (stereo not drawn) [Compound 107, 5-[3-[4-[2-methyl-5-(trifluoromethyl)pyrazol-3-yl]-1H-imidazol-2-yl]chroman-6-yl]oxy-3,4-dihydro-1H-1,8-naphthyridin-2-one] | 12.5 | 57.5 | 0.7 | 178 | 0.3 | – | – | – | – | – |
